Experimental data: article PMC7356761 (Molecules, 2020)

Columns and labels:
[1] = Biodistribution in tumor-bearing mice, normal tissues; type: in vivo, mouse
Description: Male ddY mice (27–30 g, 6 weeks old) and female BALB/c nu/nu mice (12–17 g, 4 weeks old) were purchased from Japan SLC Inc. (Hamamatsu, Japan). The mice were housed in a cage with free access to food and water maintained at a constant temperature (23–25 °C) with a 12 h light/dark cycle. […] The tumor reached palpable size 2- and 3-weeks post-inoculation. Animal experiments were conducted in accordance with laboratory guidelines for the care and use of animals of Kanazawa University. The animal handling protocol was approved by the Kanazawa University Animal Care Committee (approval number: AP-163766). 3.10. Biodistribution Studies Mice were injected intravenously via the lateral tail vein with a saline solution of [^125I]10 (25 kBq, 100 μL) containing 1% tween-80 and 10% ethanol. The ddY mice were sacrificed at 10 min, 1, 4 and 24 h; meanwhile, the tumor-bearing mice were sacrificed at 1 and 4 h post injection. The selected tissues and organs were collected and weighed and their radioactivity was measured using an auto well gamma counter. […] The mice were sacrificed 1 h after the administration of radiotracer. The biodistribution data are expressed as percent injected dose per gram of tissue (% ID/g) along with the SD.

[2] = In vitro stability in PBS; type: physicochemical; details: 0.1 M PBS pH 7.4, 37 °C
Description: 3.7. In Vitro Stability Experiments
The in vitro stability of [^125I]10 was examined in phosphate buffered saline (PBS) and mouse plasma. Briefly, [^125I]10 solution (50 µL) in a sealed tube containing 0.1 M PBS pH 7.4 (450 µL) was incubated at 37 °C for 1 and 24 h. After incubation, the purities of radiotracers were analyzed by RP-HPLC with mobile phase system water (A) and methanol (B), B: 70–100%, 20 min using a Cosmosil® 5C18 MSII (4.6 ID × 150 mm) column, a flow rate 1 mL/min. The column temperature was kept at 40 °C.

[3] = test system: H3255 cells (L858R active mutant EGFR); assay: Cellular uptake study, H3255; type: cell-based, human
Description: 3.8. Cellular Uptake Studies
Then, the cell culture was incubated in a serum-free medium containing [^125I]10 (3.7 kBq/well) for 4 h. The medium from each well was removed and the cells were washed with 1 mL of ice-cold PBS. Finally, all cell fractions were lysed twice with 0.5 mL of 1 M NaOH aqueous solution. The radioactivity of every fraction was determined by an auto well gamma counter. Total cell protein was determined using the Bicinchoninic Acid (BCA) Protein Assay Kit (Nacalai) protocol, which uses bovine serum albumin as a standard reference. […]. All data were expressed as percent dose per milligram of protein (% dose/mg protein) ± SD.

[4] = Blocking (1 h), CO-1686 30 mg/kg i.p. 1 h prior

- Biodistribution, Blood [1, 4]: 1.79 (0.21) % ID/g tissue
- Biodistribution, Bone [1, 4]: 1.07 (0.36) % ID/g tissue
- Biodistribution, Brain [1, 4]: 0.10 (0.02) % ID/g tissue
- Biodistribution, Heart [1, 4]: 1.53 (0.58) % ID/g tissue
- Biodistribution, Kidney [1, 4]: 4.19 (1.28) % ID/g tissue
- Biodistribution, Large intestine [1, 4]: 8.96 (7.48) % ID/g tissue
- Biodistribution, Liver [1, 4]: 21.77 (2.83) % ID/g tissue
- Biodistribution, Lung [1, 4]: 3.40 (0.93) % ID/g tissue
- Biodistribution, Muscle [1, 4]: 1.09 (0.42) % ID/g tissue
- Biodistribution, Pancreas [1, 4]: 3.87 (0.87) % ID/g tissue
- Biodistribution, Small intestine [1, 4]: 60.68 (6.67) % ID/g tissue
- Biodistribution, Spleen [1, 4]: 2.81 (0.77) % ID/g tissue
- Biodistribution, Stomach [1, 4]: 1.44 (0.57) % ID/organ
- Biodistribution, Blood ([1]; i.v., 1 h): 1.74 (0.18) % ID/g tissue
- Biodistribution, Bone ([1]; i.v., 1 h): 0.50 (0.40) % ID/g tissue
- Biodistribution, Brain ([1]; i.v., 1 h): 0.11 (0.08) % ID/g tissue
- Biodistribution, Heart ([1]; i.v., 1 h): 1.46 (0.31) % ID/g tissue
- Biodistribution, Kidney ([1]; i.v., 1 h): 5.26 (1.50) % ID/g tissue
- Biodistribution, Large intestine ([1]; i.v., 1 h): 18.65 (19.88) % ID/g tissue
- Biodistribution, Liver ([1]; i.v., 1 h): 28.12 (5.43) % ID/g tissue
- Biodistribution, Lung ([1]; i.v., 1 h): 4.67 (0.85) % ID/g tissue
- Biodistribution, Muscle ([1]; i.v., 1 h): 0.86 (0.21) % ID/g tissue
- Biodistribution, Pancreas ([1]; i.v., 1 h): 1.99 (0.52) % ID/g tissue
- Biodistribution, Small intestine ([1]; i.v., 1 h): 85.58 (7.68) % ID/g tissue
- Biodistribution, Spleen ([1]; i.v., 1 h): 3.20 (0.62) % ID/g tissue
- Biodistribution, Stomach ([1]; i.v., 1 h): 1.04 (0.36) % ID/organ
- Biodistribution, Blood ([1]; i.v., 4 h): 0.77 (0.07) % ID/g tissue
- Biodistribution, Bone ([1]; i.v., 4 h): 0.24 (0.20) % ID/g tissue
- Biodistribution, Brain ([1]; i.v., 4 h): 0.04 (0.02) % ID/g tissue
- Biodistribution, Heart ([1]; i.v., 4 h): 0.60 (0.67) % ID/g tissue
- Biodistribution, Kidney ([1]; i.v., 4 h): 1.62 (0.26) % ID/g tissue
- Biodistribution, Large intestine ([1]; i.v., 4 h): 144.21 (10.97) % ID/g tissue
- Biodistribution, Liver ([1]; i.v., 4 h): 12.40 (1.06) % ID/g tissue
- Biodistribution, Lung ([1]; i.v., 4 h): 1.02 (0.28) % ID/g tissue
- Biodistribution, Muscle ([1]; i.v., 4 h): 0.27 (0.08) % ID/g tissue
- Biodistribution, Pancreas ([1]; i.v., 4 h): 0.49 (0.12) % ID/g tissue
- Biodistribution, Small intestine ([1]; i.v., 4 h): 9.82 (3.17) % ID/g tissue
- Biodistribution, Spleen ([1]; i.v., 4 h): 0.71 (0.19) % ID/g tissue
- Biodistribution, Stomach ([1]; i.v., 4 h): 0.48 (0.19) % ID/organ
- stability in PBS ([2]; 24 h incubation): purity decreased gradually
- stability in PBS ([2]; until 1 h): slightly decomposed
Structure (SMILES): C=CC(=O)Nc1cc([125I])cc(Nc2nc(Nc3ccc(N4CCN(C(C)=O)CC4)cc3OC)ncc2C(F)(F)F)c1 [[^125I]10]
- cell uptake ([3]; H3255, 4 h incubation): 33.52 % dose/mg protein
- reduction of accumulation by gefitinib ([3]; H3255, gefitinib 100 µM): over 50%
